Experimental data reported in patent EP3821949B1, “PHARMACEUTICAL COMPOSITION FOR USE IN THE TREATMENT OF A CANCER ASSOCIATED WITH THE ACTIVATION OF GALECTIN-1” (Trineo Biotechnology Co. Ltd, priority 2019, dated 2021).
Several values for one entry are separate records, joined by “and”; a condition that tells them apart may be missing. Equal entries are not always repeated.

Legend:
Format in all cases: cell-based
myeloma ARH-77 cells = test: MTT assay on myeloma ARH-77 cells, chemotherapeutic drug alone or combined with TN-GL-01 or a comparative drug; details: for IC50: Homo sapiens, ARH-77 cells, chemotherapeutic agent alone (control)
Experimental: (§1) Ovarian cancer cell ES-2 and myeloma cell line ARH-77 were used in the present disclosure. Cells was cultured and maintained in Dulbecco's modified Eagle media (DMEM) supplemented with 10 % fetal bovine serum (FBS), 100 IU/ml penicillin, […] streptomycin, 2 mM glutamine, nonessential amino acids and sodium pyruvate in 5% CO2 at 37 °C. Cells were grown and maintained in Petri dishes (each was 10 cm in diameter) until they reached 80% confluence, and then were subject to cell passages. Briefly, cells were first washed with phosphate buffer solution (PBS, 3 ml) once, then treated with 0.05% Trypsin/0.025% EDTA solution (1 mL) for 5 min so that the attached cells become suspended. The suspended cells were harvested and 2 mL fresh culture media were added therein to neutralize any remaining activity of trypsin. Cell density was adjusted by adding appropriate amounts of culture medium to the cell suspension, which was then used to seed the culture plates. The plates were then returned to the incubator, and cultured in accordance with the steps described above.
Cells were seeded in 96-well plates with a density of 3,000 cells/well and cultured in accordance with the procedures described above. On the day when cell activity analysis was to be conducted, cells were first treated with various concentrations of the triterpenoids of the present disclosure, imatinib or gefitinib for at least 48 hrs, before subjecting them to MTT assay.
(§2) 50 µL of the MTT stock solution (5 mg MTT dissolved in 1 ml of sterile PBS) was added to each well, and 50 µL of the MTT stock solution was added to 500 µL of medium alone and used as a negative control. Each sample was incubated at 37°C for 4 hours. Aliquots (450 µl) from each sample were taken to a new well of 48-well culture plate, adding 100µL DMSO, mixing thoroughly using the pipette and reacted at 37°C for 20 min and absorbance was measured at 570 nm.
In this example, the effect of TN-GL-01 composition of example 1.1 on the cell killing effect of a chemotherapeutic drug (i.e., etoposide, doxorubicin, cisplatin, and paclitaxel) on myeloma ARH-77 cells was investigated, in which cyclophosphamide served as a comparative drug. Results are summarized in Tables 1 to 3, and Figures 3 and 4.
To determine the effects of combined use of TN-GL-01 and any other three drugs including paclitaxel, doxorubicin, and cisplatin, the statistical differences between expected value and oberved value of the survival rate were calculated. If no significantance existed between the expected and observed values, the effect is termed"additivity (p > 0.05)". […] The expected value was determined by multifying the survival rate of each drug in specific dose. The obtained value and value of each survival rate were measured by MMT assay (Fig. 3 and Fig. 4).

ES-2 cells = test: MTT assay (cell activity analysis) on ovarian cancer ES-2 cells; details: treatment at least 48 hrs
Experimental: as §1, with “The suspended cells were harvested and 2 mL fresh culture media were added therein to neutralize any remaining activity of trypsin. Cell density was adjusted by adding appropriate amounts of culture medium to the cell suspension, which was then used to seed the culture plates. The plates were then returned to the incubator, and cultured in accordance with the steps described above.” left out
as §2, with “Each sample was incubated at 37°C for 4 hours.” left out
The effects of the TN-GL-01 composition of example 1.1 on ovarian cancer cells (i.e., ES-2 cells) were evaluated by MTT assay in accordance with procedures described in the "Material and Methods" section.

galectin-1 = test: Western blot analysis of galectin-1 expression in ES-2 cells; details: Figure 2
Experimental: Samples were respectively subjected to SDS-PAGE, transferred to PVDF membranes. These blots were blocked with 5% nonfat milk powder in TBS-0.1% Tween-20 for 30 minutes, followed by incubation with primary antibodies at 4°C overnight and then horseradish peroxidaseconjugated secondary antibodies (Amersham Biosciences, Piscataway). Imaging of bands was performed using Pierce ECL Western Blotting Substrate (Thermo Fisher Scientific) and ImageQuant LAS-4000 (GE Healthcare).
In this example, the effects of TN-GL-01 composition on the expression of galectin-1 in ERK (extracellular-signal-regulated kinase) pathway was invesigated via western blot analysis. […] Thus, it was concluded that the present TN-GL-01 composition exerted its function through suppression of galectin -1.

[1] = Table 2, second agent alone: TN-GL-01 20 µg/mL, Doxorubicin 100 nM, Cisplatin 3 µM
[2] = Table 3, second agent alone: TN-GL-01 20 µg/mL, Paclitaxel 40 µM, Cisplatin 3 µM

IC50 (myeloma ARH-77 cells) [nM]	SMILES	Cell Survival Rate, single drug (factor of expected value) (myeloma ARH-77 cells; [1])	Cell Survival Rate, single drug (factor of expected value) (myeloma ARH-77 cells; [2])	50% inhibition of ES-2 cells (IC50) (ES-2 cells) [µg/mL]	expression of galectin-1 (galectin-1)	further results
	N.N.[Cl][Pt][Cl] [Cisplatin]	0.65	0.69			
99	COc1cccc2c1C(=O)c1c(O)c3c(c(O)c1C2=O)C[C@@](O)(C(=O)CO)C[C@@H]3O[C@H]1C[C@H](N)[C@H](O)[C@H](C)O1 [Doxorubicin]	0.58				
415	COc1cc([C@@H]2c3cc4c(cc3[C@@H](O[C@@H]3O[C@@H]5CO[C@@H](C)O[C@H]5[C@H](O)[C@H]3O)[C@H]3COC(=O)[C@H]23)OCO4)cc(OC)c1O [Etoposide]					
	C/C(=C/CC[C@@H](C)[C@H]1CC[C@@]2(C)C3=CC[C@H]4C(C)(C)C(=O)CC[C@]4(C)C3=CC[C@]12C)C(=O)O [GAS, ganoderic acid S]			58.3	effective in suppressing	
	CC(=O)O[C@@H](C/C=C(\C)C(=O)O)[C@@H](C)[C@H]1C[C@H](OC(C)=O)[C@@]2(C)C3=CC[C@H]4C(C)(C)[C@H](OC(C)=O)CC[C@]4(C)C3=CC[C@]12C [GAT, ganoderic acid T]			24.5	effective in suppressing	
	CC(=O)O[C@H]1C(=O)[C@@]2(C)[C@H]([C@H](OC(=O)c3ccccc3)[C@]3(O)C[C@H](OC(=O)[C@H](O)[C@@H](NC(=O)c4ccccc4)c4ccccc4)C(C)=C1C3(C)C)[C@]1(OC(C)=O)CO[C@@H]1C[C@@H]2O [Paclitaxel]		0.65			Cell Survival Rate, single drug (factor of expected value) (myeloma ARH-77 cells; Table 2, Paclitaxel 62.5 nM alone): 0.68 × 0.82 = 0.56±0.03 and 0.68; Cell Survival Rate, single drug (factor of expected value) (myeloma ARH-77 cells; Table 2, Paclitaxel 125 nM alone): 0.50 × 0.82 = 0.41±0.03 and 0.50
